Measurements from patent US4571396A, “Antibacterial agents” (Warner-Lambert Company, priority 1985, dated 1986).
In brackets after ≈: the same amount, converted by molar mass. Where a name gives a salt, the structure may show the parent alone. Read-outs that look alike come from different tables or passages of the source.

Experiments:
Assay in all cases: In vitro antibacterial activity, microtitration dilution method (MIC)
Type in all cases: cell-based
[1] = system: Staphylococcus aureus H 228; conditions: H228, read-out: Minimal Inhibitory Concentration MIC
Description: The compounds of the invention display antibacterial activity when tested by the microtitration dilution method as described in Heifetz, et al, Antimicr. Agents & Chemoth., 6, 124 (1974), which is incorporated herein by reference.
By use of the above reference method, the followed minimum inhibitory concentration value (MICs in μg/ml) shown in the table were obtained for representative compounds of the invention.

Proteus rettgeri M 1771 = conditions: Providencia rettgeri
Description: (§1) Agents & Chemoth., 6, 124 (1974), which is incorporated herein by reference.

[2] = system: Enterobacter cloacae MA 2646
Description: as §1

[3] = system: Pseudomonas aeruginosa UI-18
Description: as §1

[4] = system: Streptococcus pneumoniae SV-1
Description: as §1

[5] = system: Streptococcus pyogenes C-203
Description: as §1

[6] = system: Staphylococcus aureus UC-76
Description: as §1

[7] = system: Streptococcus faecalis MGH-2; conditions: Enterococcus faecalis
Description: as §1

Escherichia coli Vogel = conditions: read-out: Minimal Inhibitory Concentration MIC
Description: as §1

[8] = system: Klebsiella pneumoniae MGH-2
Description: as §1

[9] = M1771, Proteus rettgeri M 1771, in vitro, read-out: Minimal Inhibitory Concentration MIC
[10] = MA2646, Enterobacter cloacae MA 2646, in vitro, read-out: Minimal Inhibitory Concentration MIC
[11] = UI18, Pseudomonas aeruginosa UI-18, in vitro, read-out: Minimal Inhibitory Concentration MIC
[12] = SV1, Streptococcus pneumoniae SV-1, in vitro, read-out: Minimal Inhibitory Concentration MIC
[13] = C203, Streptococcus pyogenes C-203, in vitro, read-out: Minimal Inhibitory Concentration MIC
[14] = UC76, Staphylococcus aureus UC-76, in vitro, read-out: Minimal Inhibitory Concentration MIC
[15] = MGH2, Streptococcus faecalis MGH-2, in vitro, read-out: Minimal Inhibitory Concentration MIC
[16] = MGH2, Klebsiella pneumoniae MGH-2, in vitro, read-out: Minimal Inhibitory Concentration MIC

Row | SMILES | MIC [1] [µg/mL] | MIC (Proteus rettgeri M 1771; [9]) [µg/mL] | MIC [2, 10] [µg/mL] | MIC [3, 11] [µg/mL] | MIC [4, 12] [µg/mL] | MIC [5, 13] [µg/mL] | MIC [6, 14] [µg/mL] | MIC [7, 15] [µg/mL] | MIC (Escherichia coli Vogel) [µg/mL] | MIC [8, 16] [µg/mL] | MIC ([2]; Enterobacter cloacae, MA2646, read-out: Minimal Inhibitory Concentration MIC) [µg/mL] | MIC ([4]; Streptococcus pneumoniae, SV1, read-out: Minimal Inhibitory Concentration MIC) [µg/mL] | MIC ([5]; Streptococcus pyogenes, C203, read-out: Minimal Inhibitory Concentration MIC) [µg/mL] | MIC ([8]; Klebsiella pneumoniae, MGH2, read-out: Minimal Inhibitory Concentration MIC) [µg/mL] | MIC (Proteus rettgeri M 1771; M1771, read-out: Minimal Inhibitory Concentration MIC) [µg/mL] | MIC ([3]; Pseudomonas aeruginosa, UI18, read-out: Minimal Inhibitory Concentration MIC) [µg/mL] | MIC ([7]; MGH2, read-out: Minimal Inhibitory Concentration MIC) [µg/mL] | MIC ([6]; Staphylococcus aureus, UC76, read-out: Minimal Inhibitory Concentration MIC) [µg/mL]
1 | O=C(O)c1cn(C2CC2)c2c(F)c(N3CC4CCC3CN4)c(F)cc2c1=O (stereo not drawn) [Ex. 3, 7-(2,5-Diazabicyclo[2.2.2]oct-2-yl)-1-cyclopropyl-6,8-difluoro-1,4-dihydro-4-oxo-3-quinolinecarboxylic acid] | 0.4 (≈ 1.07 µM) | 0.8 (≈ 2.13 µM) | – | 0.8 (≈ 2.13 µM) | – | – | 0.025 (≈ 0.0666 µM) | 1.6 (≈ 4.26 µM) | 0.05 (≈ 0.133 µM) | 0.1 (≈ 0.266 µM) | 0.05 (≈ 0.133 µM) | 1.6 (≈ 4.26 µM) | 0.8 (≈ 2.13 µM) | – | – | – | – | –
2 | O=C(O)c1cn(C2CC2)c2nc(N3CCN4CCC3C4)c(F)cc2c1=O (stereo not drawn) [Ex. 14] | 0.8 (≈ 2.23 µM) | 0.4 (≈ 1.12 µM) | 0.1 (≈ 0.279 µM) | 0.8 (≈ 2.23 µM) | 0.8 (≈ 2.23 µM) | 0.4 (≈ 1.12 µM) | 0.1 (≈ 0.279 µM) | 0.8 (≈ 2.23 µM) | 0.05 (≈ 0.14 µM) | – | – | – | – | 0.1 (≈ 0.279 µM) | – | – | – | –
3 | O=C(O)c1cn(C2CC2)c2c(F)c(N3CC4CC3CN4)c(F)cc2c1=O (stereo not drawn) [Ex. 7d, 1-cyclopropyl-7-[2,5-diazabicyclo(2.2.1)hept-2-yl]-6,8-difluoro-1,4-dihydro-4-oxo-3-quinolinecarboxylic acid] | 0.8 (≈ 2.21 µM) | – | 0.1 (≈ 0.277 µM) | 0.2 (≈ 0.553 µM) | 1.6 (≈ 4.43 µM) | 0.2 (≈ 0.553 µM) | 0.2 (≈ 0.553 µM) | 0.8 (≈ 2.21 µM) | 0.05 (≈ 0.138 µM) | 0.1 (≈ 0.277 µM) | – | – | – | – | 0.1 (≈ 0.277 µM) | – | – | –
4 | CCn1cc(C(=O)O)c(=O)c2cc(F)c(N3CC4CCC3CN4)c(F)c21 (stereo not drawn) [Ex. 2, 7-(2,5-Diazabicyclo[2.2.2]oct-2-yl)-1-ethyl-6,8-difluoro-1,4-dihydro-4-oxo-3-quinolinecarboxylic acid] | 0.4 (≈ 1.1 µM) | 0.8 (≈ 2.2 µM) | 0.2 (≈ 0.55 µM) | 0.4 (≈ 1.1 µM) | 0.8 (≈ 2.2 µM) | 0.4 (≈ 1.1 µM) | ≤ 0.1 | 1.6 (≈ 4.4 µM) | 0.1 (≈ 0.275 µM) | 0.4 (≈ 1.1 µM) | – | – | – | – | – | – | – | –
5 | CN1CC2CC1CN2c1nc2c(cc1F)c(=O)c(C(=O)O)cn2C1CC1 (stereo not drawn) [Ex. 10b, 1-cyclopropyl-6-difluoro-1,4-dihydro-7-(5-methyl-2,5-diazabicyclo[2.2.1]hept-2-yl)-4-oxo-1,8-naphthyridine-3-carboxylic acid monohydrochloride] | 0.4 | 0.4 | – | – | 0.4 | 0.4 | 0.1 | – | 0.05 | 0.05 | – | – | – | – | – | 0.4 | 0.8 | –
6 | CCn1cc(C(=O)O)c(=O)c2cc(F)c(N3[C@@H]4CC[C@H]3C[C@H](N)C4)nc21 [Ex. 20, 7-(3-(Exo-amino)-8-azabicyclo[3.2.1]oct-8-yl]-1-ethyl-6-fluoro-1,4-dihydro-4-oxo-1,8-naphthyridine-3-carboxylic acid, hydrochloride] | 0.4 | 0.8 | 0.8 | 0.8 | 0.4 | 0.4 | – | 0.8 | 0.4 | 0.4 | – | – | – | – | – | – | – | 0.2
7 | O=C(O)c1cn(C2CC2)c2c(F)c(N3CCN4CCC3C4)c(F)cc2c1=O (stereo not drawn) [Ex. 17, 1-Cyclopropyl-7-(1,4-diazabicyclo[3.2.1]oct-4-yl)-6,8-difluoro-1,4-dihydro-4-oxo-3-quinolinecarboxylic acid] | 0.4 (≈ 1.07 µM) | 0.2 (≈ 0.533 µM) | 0.025 (≈ 0.0666 µM) | 0.4 (≈ 1.07 µM) | 0.4 (≈ 1.07 µM) | 0.1 (≈ 0.266 µM) | 0.025 (≈ 0.0666 µM) | 0.2 (≈ 0.533 µM) | 0.05 (≈ 0.133 µM) | 0.05 (≈ 0.133 µM) | – | – | – | – | – | – | – | –
8 | CCn1cc(C(=O)O)c(=O)c2cc(F)c(N3CCN4CCC3C4)c(F)c21 (stereo not drawn) [Ex. 16, 7-(1,4-Diazabicyclo[3.2.1]oct-4-yl)-1-ethyl-6,8-difluoro-1,4-dihydro-4-oxo-3-quinolinecarboxylic acid] | 0.4 (≈ 1.1 µM) | 0.2 (≈ 0.55 µM) | 0.5 (≈ 1.38 µM) | 0.4 (≈ 1.1 µM) | 0.8 (≈ 2.2 µM) | 0.4 (≈ 1.1 µM) | 0.1 (≈ 0.275 µM) | 0.8 (≈ 2.2 µM) | – | 0.1 (≈ 0.275 µM) | – | – | – | – | – | – | – | –

More lines, main results first:

Row | MIC [1] [µg/mL] | MIC (Proteus rettgeri M 1771; [9]) [µg/mL] | MIC [2, 10] [µg/mL] | MIC [3, 11] [µg/mL] | MIC [4, 12] [µg/mL] | MIC [5, 13] [µg/mL] | MIC [6, 14] [µg/mL] | MIC [7, 15] [µg/mL] | MIC (Escherichia coli Vogel) [µg/mL] | MIC [8, 16] [µg/mL] | SMILES | MIC ([2]; Enterobacter cloacae, MA2646, read-out: Minimal Inhibitory Concentration MIC) [µg/mL] | MIC ([4]; Streptococcus pneumoniae, SV1, read-out: Minimal Inhibitory Concentration MIC) [µg/mL] | MIC ([5]; Streptococcus pyogenes, C203, read-out: Minimal Inhibitory Concentration MIC) [µg/mL] | MIC ([8]; Klebsiella pneumoniae, MGH2, read-out: Minimal Inhibitory Concentration MIC) [µg/mL] | MIC (Proteus rettgeri M 1771; M1771, read-out: Minimal Inhibitory Concentration MIC) [µg/mL] | MIC ([3]; Pseudomonas aeruginosa, UI18, read-out: Minimal Inhibitory Concentration MIC) [µg/mL] | MIC ([7]; MGH2, read-out: Minimal Inhibitory Concentration MIC) [µg/mL] | MIC ([6]; Staphylococcus aureus, UC76, read-out: Minimal Inhibitory Concentration MIC) [µg/mL]
9 | 0.4 | 1.6 | < 0.1 | 1.6 | 1.6 | 1.6 | 0.2 | 1.6 | 0.4 | 0.4 | CCn1cc(C(=O)O)c(=O)c2cc(F)c(N3CC4CCC3CN4C)nc21.Cl (stereo not drawn) [Ex. 10a, 1-Ethyl-6-fluoro-7-(5-methyl-2,5-diazabicyclo[2.2.2]oct-2-yl)-1,4-dihydro-4-oxo-1,8-naphthyridine-3-carboxylic acid hydrochloride] | – | – | – | – | – | – | – | –
10 | 0.05 (≈ 0.14 µM) | 0.4 (≈ 1.12 µM) | 0.1 (≈ 0.279 µM) | 0.2 (≈ 0.558 µM) | 0.4 (≈ 1.12 µM) | 0.4 (≈ 1.12 µM) | 0.006 (≈ 0.0167 µM) | 0.4 (≈ 1.12 µM) | 0.1 (≈ 0.279 µM) | 0.05 (≈ 0.14 µM) | O=C(O)c1cn(C2CC2)c2nc(N3CC4CCC3CN4)c(F)cc2c1=O (stereo not drawn) [Ex. 6a, 7-(2,5-diazabicyclo[2.2.2]oct-2-yl)-1-cyclopropyl-6-fluoro-1,4-dihydro-4-oxo-1,8-naphthyridine-3-carboxylic acid] | – | – | – | – | – | – | – | –
11 | 0.1 | 0.2 | 0.1 | 0.4 | 0.4 | 0.4 | 0.025 | 0.4 | 0.05 | 0.05 | CN1CC2CC1CN2c1c(F)cc2c(=O)c(C(=O)O)cn(C3CC3)c2c1F.Cl (stereo not drawn) [Ex. 10c, 1-cyclopropyl-6,8-difluoro-1,4-dihydro-7-(5-methyl-2,5-diazabicyclo[2.2.1]hept-2-yl)-4-oxo-3-quinolinecarboxylic acid monohydrochloride] | – | – | – | – | – | – | – | –
12 | 0.8 | 0.2 | 0.05 | – | 0.8 | 0.2 | 0.2 | 0.8 | 0.1 | 0.05 | Cl.O=C(O)c1cn(C2CC2)c2nc(N3CC4CC3CN4)c(F)cc2c1=O (stereo not drawn) [Ex. 7c, 1-cyclopropyl-7-[2,5-diazabicyclo(2.2.1)hept-2-yl]-6-fluoro-1,4-dihydro-4-oxo-1,8-naphthyridine-3-carboxylic acid, monohydrochloride] | – | – | – | – | – | – | – | –
